The target of the experiment is T1, human GIP receptor (hGIPR) (Homo sapiens, UniProt P48546).
T1 sequence (P48546 22-466): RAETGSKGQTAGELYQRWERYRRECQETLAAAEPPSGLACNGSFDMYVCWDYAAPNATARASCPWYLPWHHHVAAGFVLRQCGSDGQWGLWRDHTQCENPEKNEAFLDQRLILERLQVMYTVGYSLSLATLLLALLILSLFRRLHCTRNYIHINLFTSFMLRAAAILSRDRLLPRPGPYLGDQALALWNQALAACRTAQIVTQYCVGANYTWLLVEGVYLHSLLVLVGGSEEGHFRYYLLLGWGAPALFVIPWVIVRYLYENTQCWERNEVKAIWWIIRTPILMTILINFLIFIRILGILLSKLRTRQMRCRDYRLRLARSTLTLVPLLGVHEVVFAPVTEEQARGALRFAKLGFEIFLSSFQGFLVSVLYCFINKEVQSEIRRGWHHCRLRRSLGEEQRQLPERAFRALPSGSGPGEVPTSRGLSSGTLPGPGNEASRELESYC
Kind of experiment: In vitro cellular cAMP assay for GIP receptor efficacy (HEK-293 cell line over-expressing receptor). It is filed as cell-based. The following applies: EC50 hGIPR 0.1% BSA, HEK-293, 0.1% BSA. A general note: cAMP levels reflect the balance of adenylyl cyclase and phosphodiesterase activity.

SMILES strings stand for the structures. Numbered stars: 1 amine (or outer) side, 2 acyl side, 3 side chain; on linkers, the order of the positions; unused ones are H or OH. Square brackets hold non-standard residues; d marks the D form. Side chains are listed from the residue outwards. Peptide text beside a SMILES is read from it. * marks the point of attachment. C18 diacid = O=C(O)CCCCCCCCCCCCCCCCC(=O)*; γGlu = O=C(O)[C@H](CCC(=O)[*:2])N[*:1]; αMeV = CC(C)[C@](C)(N)C(=O)O; AEEA = NCCOCCOCC(=O)O; Aib = CC(C)(N)C(=O)O

The EC50 is the concentration giving half of the maximal effect. A higher EC50 goes with lower potency in that assay.

Take `CC[C@H](C)[C@H](NC(=O)[C@H](CCCNC(=N)N)NC(=O)[C@H](CC(=O)O)NC(=O)[C@H](CCCCNC(=O)COCCOCCNC(=O)COCCOCCNC(=O)CC[C@H](NC(=O)CCCCCCCCCCCCCCCCC(=O)O)C(=O)O)NC(=O)C(C)(C)NC(=O)[C@@H](NC(=O)[C@H](CO)NC(=O)[C@H](CC(C)C)NC(=O)[C@H](CC(=O)O)NC(=O)[C@H](CO)NC(=O)[C@@H](NC(=O)[C@@](C)(CC)NC(=O)[C@@H](NC(=O)CNC(=O)[C@H](CCC(=O)O)NC(=O)C(C)(C)NC(=O)[C@@H](N)Cc1ccc(O)cc1)[C@@H](C)O)[C@@H](C)CC)[C@@H](C)CC)C(=O)N[C@@H](Cc1c[nH]cn1)C(=O)N[C@@H](CCC(N)=O)C(=O)NC(C)(C)C(=O)N[C@@H](CCC(=O)O)C(=O)N[C@@](C)(Cc1ccccc1)C(=O)N[C@H](C(=O)N[C@@H](CCC(=O)O)C(=O)N[C@@H](Cc1c[nH]c2ccccc12)C(=O)N[C@@H](CC(C)C)C(=O)N[C@@H](CC(C)C)C(=O)N[C@@H](C)C(=O)N[C@@H](CCC(N)=O)C(=O)N[C@@H](CCCNC(=N)N)C(=O)NCC(N)=O)[C@@H](C)CC` [SEQ ID NO: 18, H2N-Y-Aib-E-G-T-Iva-I-S-D-L-S-I-Aib-K[{AEEA}2-gGlu-C18OH]-D-R-I-H-Q-Aib-E-Mph-I-E-W-L-L-A-Q-R-G-NH2]: the concentration giving a half-maximal response (EC50) came to 0.0179 nM.

Compound `CC[C@H](C)[C@H](NC(=O)[C@H](Cc1ccccc1)NC(=O)[C@H](CCC(=O)O)NC(=O)[C@H](CCC(=O)O)NC(=O)[C@H](CCC(N)=O)NC(=O)[C@H](Cc1c[nH]cn1)NC(=O)[C@@H](NC(=O)[C@H](CCCNC(=N)N)NC(=O)[C@H](CC(=O)O)NC(=O)[C@H](CCCCNC(=O)COCCOCCNC(=O)COCCOCCNC(=O)CC[C@H](NC(=O)CCCCCCCCCCCCCCCCC(=O)O)C(=O)O)NC(=O)C(C)(C)NC(=O)[C@@H](NC(=O)[C@H](CO)NC(=O)[C@H](CC(C)C)NC(=O)[C@H](CC(=O)O)NC(=O)[C@H](CO)NC(=O)[C@@H](NC(=O)[C@@](C)(NC(=O)[C@@H](NC(=O)CNC(=O)[C@H](CCC(=O)O)NC(=O)C(C)(C)NC(=O)[C@@H](N)Cc1ccc(O)cc1)[C@@H](C)O)C(C)C)[C@@H](C)CC)[C@@H](C)CC)[C@@H](C)CC)C(=O)N[C@@H](CCC(=O)O)C(=O)N[C@@H](Cc1c[nH]c2ccccc12)C(=O)N[C@@H](CC(C)C)C(=O)N[C@@H](CC(C)C)C(=O)N[C@@H](C)C(=O)N[C@@H](CCC(N)=O)C(=O)NCC(=O)N1CCC[C@H]1C(=O)N[C@@H](CO)C(=O)N[C@@H](CO)C(=O)NCC(=O)N[C@@H](C)C(=O)N1CCC[C@H]1C(=O)N1CCC[C@H]1C(=O)N1CCC[C@H]1C(=O)N[C@@H](CO)C(N)=O` [SEQ ID NO: 26, H2N-Y-Aib-E-G-T-Mva-I-S-D-L-S-I-Aib-K[{AEEA}2-gGlu-C18OH]-DRIHQEEFIEWLLAQGPSSGAPPPS-NH2] (H-Y[Aib]EGT[αMeV]ISDLSI[Aib]K([AEEA-AEEA-γGlu-C18 diacid])DRIHQEEFIEWLLAQGPSSGAPPPS-NH2) had a 50% effective concentration (EC50) of 0.0602 nM. Compared with the last compound, the EC50 is about 3.4-fold higher.

The record behind these values is patent US20240360194A1, “New Peptides as Potent and Selective GIP Receptor Agonists” (Sanofi, priority 2021, published 2024).
